According to publication PMC4363092 (Journal of medicinal chemistry, 2014):

Target: T1, human NTPDase1 (Homo sapiens, UniProt P49961)
T1 sequence (P49961 1-510): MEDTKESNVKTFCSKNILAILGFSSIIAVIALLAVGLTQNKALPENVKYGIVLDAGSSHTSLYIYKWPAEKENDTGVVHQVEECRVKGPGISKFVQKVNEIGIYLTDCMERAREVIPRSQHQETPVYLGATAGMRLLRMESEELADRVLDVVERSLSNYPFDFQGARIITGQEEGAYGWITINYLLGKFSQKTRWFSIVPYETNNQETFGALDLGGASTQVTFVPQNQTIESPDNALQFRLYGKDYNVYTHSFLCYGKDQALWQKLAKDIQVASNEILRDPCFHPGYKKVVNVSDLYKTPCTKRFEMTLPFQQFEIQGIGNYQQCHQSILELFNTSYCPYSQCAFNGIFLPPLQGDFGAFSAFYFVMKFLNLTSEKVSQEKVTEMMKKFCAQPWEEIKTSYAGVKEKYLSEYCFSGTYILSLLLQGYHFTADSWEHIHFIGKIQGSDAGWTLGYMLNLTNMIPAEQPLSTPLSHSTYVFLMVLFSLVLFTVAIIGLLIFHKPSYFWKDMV
Experiment: Inhibition of NTPDase1 activity
Assay type: biochemical
Conditions: analogue 100 μM, substrate ATP 100 μM

## Nc1ncnc2c1ncn2[C@@H]1O[C@H](COP(=O)(O)CP(=O)(O)OP(O)(O)=S)[C@@H](O)[C@H]1O [compound 3]
  inhibition (%) ± SD, human NTPDase1: 60%
